From paper PMC11173485, “Connecting GSK-3β Inhibitory Activity with IKK-β or ROCK-1 Inhibition to Target Tau Aggregation and Neuroinflammation in Alzheimer’s Disease—Discovery, In Vitro and In Cellulo Activity of Thiazole-Based Inhibitors” (Molecules, 2024) come the findings set out here.

For orientation: viability means a read-out of living cells in per cent, often relative to untreated cells. Broadly, the IC50 is the concentration that inhibits the measured activity by half.

Structures are written as SMILES. Some results are limits rather than exact numbers.

The subject of series [1] is HT-22 (mouse hippocampal neuronal cells). Kind of series: Cytotoxicity, PrestoBlue cell viability assay in HT-22 cells. It counts as cell-based. The following applies: for effect on cell viability in HT-22 cells (in words): 0.1, 1, 10, 50, and 100 µM. The procedure: (§1) We assessed their cytotoxic effects at five concentrations (0.1, 1, 10, 50, and 100 µM) in HT-22 (mouse hippocampal neuronal cells) and BV-2 (mouse microglial cells) cell lines using a fluorometric assay with PrestoBlue™ cell viability reagent (Table 4, Table S2 in the SI).
(§2) Mouse microglial cells (BV-2) were a generous gift from Professor Bozena Kaminska-Kaczmarek of the Laboratory of Molecular Neurobiology, Neurobiology Center, Nencki Institute of Experimental Biology, Polish Academy of Sciences, Warsaw, Poland. Cells were cultured in Dulbecco’s modified Eagle’s Medium-high glucose (DMEM, Glutamx Thermo Fisher, Waltham, MA, USA) supplemented with 10% inactivated fetal bovine serum (Thermo Fisher), 100 IU/mL penicillin (Merck), and 100 µg/mL streptomycin (Merck). Cells were cultured in flasks (area 175 cm^2, Nunc) and incubated at 37 °C, 5% CO2. To evaluate the level of NO, IL-6, and TNF-α and the effectiveness of the compounds tested, BV-2 microglia cells were cultured in 96-well culture plates (5 × 10^4 cells per well, Falcon). For the measurement of cell viability and cell membrane damage, cells were placed in 96-well culture plates (2 × 10^4 cells per well, Falcon). Before the tests, cells were grown for 24 h in the incubator (37 °C, 5% CO2). Mouse Hippocampal Neuronal Cell Line (HT-22) was a generous gift from Dr Bartosz Pomierny of the Department of Biochemical Toxicology, Jagiellonian University Medical College, Krakow, Poland. Cells were cultured in Dulbecco’s modified Eagle’s Medium-high glucose (DMEM, Glutamx Thermo Fisher) supplemented with 10% inactivated fetal bovine serum (Thermo Fisher), 100 IU/mL penicillin (Merck), and 100 µg/mL streptomycin (Merck). Cells were cultured in flasks (area 175 cm^2, Nunc) and incubated at 37 °C, 5% CO2. For the measurement of cell viability and neuroprotective effects against okadaic acid, cells were placed in 96-well culture plates (2 × 10^4 cells per well, Falcon). Before the tests, cells were grown for 24 h in the incubator (37 °C, 5% CO2).
(§3) Cell viability was evaluated using the PrestoBlue reagent (Thermo Fisher), according to the manufacturer’s procedures. Following 24 h of incubation with the tested molecule, PrestoBlue reagent was added to a microplate well in an amount equal to one-tenth of the remaining medium volume. The resulting mixture was incubated for 15 min at 37 °C, and the fluorescence intensity (EX 530; EM 580 nm) was measured using the plate reader POLARstar Omega, (BMG Labtech, Ortenberg, Germany). The results (viability values) are provided as a percentage of live cells with respect to DMSO (control sample).
(§4) Cytotoxic effects of selected inhibitors in HT-22 mouse hippocampal neuronal cells and BV-2 mouse microglial cells
(§5) Table S2. Cytotoxic effects of selected inhibitors in HT-22 mouse hippocampal neuronal cells and BV-2 mouse microglial cells. neurotoxicity in HT-22 cellsa immunotoxicity in BV-2 cellsa […]
(§6) a % of cell viability at the given concentration of tested compound; mean value ± standard deviation (SD) of triplicates; b half maximal inhibitory concentration of the tested compound; mean value ± standard error of the mean (SEM) of triplicates; c data obtained in log C of 39 of -8.5; -7.5; -6.5; -5.5; -5, respectively; d data obtained in log C of 49 of -7.5; -6.5; -5.5; -4.5; -4. respectively; nt, not tested.

Series [2] concerns the target T1, ROCK-1 (Homo sapiens, UniProt Q13464).
T1 construct: purchased Promega
The experiment in a line: ADP-Glo kinase assay, ROCK-1 inhibition. In kind it is biochemical. The following applies: for inhibition at 10 µM: read-out: % inh. at 10 µM ROCK-1; for IC50: mean ± SEM, ATP 5 µM. The source says:
We evaluated the inhibitory activity of the final compounds against GSK-3β, IKK-β, and ROCK-1 kinases using the commercially available ADP-Glo™ kinase assay. The method was based on the measurement of luminescence that correlates with kinase activity. […] The latter are inhibitors of the kinases of interest and were integral to the design of our studies.
Promega’s Kinase Enzyme Systems (Promega; Madison, WI, USA) were used to determine the activities of the tested compounds against the human recombinant kinases GSK-3β, IKK- β, and ROCK-1. The assays were performed according to the provided manufacturer’s instruction, based on the optimized conditions of the enzymatic reactions, using the low-volume, white polystyrene, 384-well plates. The ADP-Glo™ Assay (Promega; Madison, WI, USA) was used for bioluminescent detection of the kinase activity. Stock solutions of the tested compounds in DMSO (1mM) were diluted with the Kinase Assay Buffer before use (40 mM Tris, pH 7.5, enriched with 50 µM dithiothreitol; DTT), giving the final desired concentrations. The kinase enzymes, substrates, and ATP solutions were also diluted with the assay buffer prior to use. The GSK-3β, IKK-β, and ROCK-1 substrates were derived from human muscle glycogen synthase 1, human IkBA, and human 40S ribosomal protein S6, respectively. […] The DMSO solution (1% in well) was used in the blank samples instead of the tested inhibitors. After the incubation period, ATP (25 µM per well in the case of GSK-3β and IKK-β kinases; 5 µM per well in the case of ROCK-1 kinase) and an appropriate enzyme substrate (0.2 µg/µL in well) were added to start the enzymatic reaction. The reaction mixture was kept at room temperature for 1 h; then, the ADP-Glo™ reagent was added, to terminate the kinase reaction and deplete any remaining ATP. After 40 min, a second reagent (Kinase Detection Reagent) was applied to convert the obtained ADP to ATP and to generate light from the newly synthesized ATP using a luciferase/luciferin reaction. The mixture was incubated for another 30 min at room temperature before the luminescence was measured. The calculations of the percent of kinases’ inhibition by tested compounds were based on the equation 100 − (S/B) × 100; S and B are the enzyme activities with and without the tested sample, respectively. […]. IC50 results were obtained using nonlinear regression (GraphPad Prism 9; GraphPad Software, San Diego, CA, USA) by plotting the residual enzyme activities against the applied inhibitor concentration. Each compound was evaluated in two independent experiments, with every data point collected in duplicate.
On the technique in general: ADP-Glo first removes unused ATP, then detects ADP through luciferase.

Series [3] is described as follows: Cytotoxicity, PrestoBlue cell viability assay in HT-22 cells. It counts as cell-based, mouse. The following applies: mouse, HT-22 hippocampal neuronal cells, 24 h; for viability at 24 h, 1 µM: 1 µM (log C -6); for viability at 24 h, 1 µM / viability at 24 h, 10 µM / viability at 24 h, 50 µM / viability at 24 h, 100 µM / viability at 24 h, 0.1 µM: read-out: neurotoxicity in HT-22 cells, % of cell viability; for viability at 24 h, 10 µM: 10 µM (log C -5); for viability at 24 h, 50 µM: 50 µM (log C -4.3); for viability at 24 h, 100 µM: 100 µM (log C -4); for IC50 at 24 h: PrestoBlue, mean ± SEM, read-out: Cytotoxicity in HT-22 Cells (IC50 x¯ ± SEM µM). The procedure: as §1, §2, §3, §4, §5, §6

T1 sequence (Q13464 whole entry): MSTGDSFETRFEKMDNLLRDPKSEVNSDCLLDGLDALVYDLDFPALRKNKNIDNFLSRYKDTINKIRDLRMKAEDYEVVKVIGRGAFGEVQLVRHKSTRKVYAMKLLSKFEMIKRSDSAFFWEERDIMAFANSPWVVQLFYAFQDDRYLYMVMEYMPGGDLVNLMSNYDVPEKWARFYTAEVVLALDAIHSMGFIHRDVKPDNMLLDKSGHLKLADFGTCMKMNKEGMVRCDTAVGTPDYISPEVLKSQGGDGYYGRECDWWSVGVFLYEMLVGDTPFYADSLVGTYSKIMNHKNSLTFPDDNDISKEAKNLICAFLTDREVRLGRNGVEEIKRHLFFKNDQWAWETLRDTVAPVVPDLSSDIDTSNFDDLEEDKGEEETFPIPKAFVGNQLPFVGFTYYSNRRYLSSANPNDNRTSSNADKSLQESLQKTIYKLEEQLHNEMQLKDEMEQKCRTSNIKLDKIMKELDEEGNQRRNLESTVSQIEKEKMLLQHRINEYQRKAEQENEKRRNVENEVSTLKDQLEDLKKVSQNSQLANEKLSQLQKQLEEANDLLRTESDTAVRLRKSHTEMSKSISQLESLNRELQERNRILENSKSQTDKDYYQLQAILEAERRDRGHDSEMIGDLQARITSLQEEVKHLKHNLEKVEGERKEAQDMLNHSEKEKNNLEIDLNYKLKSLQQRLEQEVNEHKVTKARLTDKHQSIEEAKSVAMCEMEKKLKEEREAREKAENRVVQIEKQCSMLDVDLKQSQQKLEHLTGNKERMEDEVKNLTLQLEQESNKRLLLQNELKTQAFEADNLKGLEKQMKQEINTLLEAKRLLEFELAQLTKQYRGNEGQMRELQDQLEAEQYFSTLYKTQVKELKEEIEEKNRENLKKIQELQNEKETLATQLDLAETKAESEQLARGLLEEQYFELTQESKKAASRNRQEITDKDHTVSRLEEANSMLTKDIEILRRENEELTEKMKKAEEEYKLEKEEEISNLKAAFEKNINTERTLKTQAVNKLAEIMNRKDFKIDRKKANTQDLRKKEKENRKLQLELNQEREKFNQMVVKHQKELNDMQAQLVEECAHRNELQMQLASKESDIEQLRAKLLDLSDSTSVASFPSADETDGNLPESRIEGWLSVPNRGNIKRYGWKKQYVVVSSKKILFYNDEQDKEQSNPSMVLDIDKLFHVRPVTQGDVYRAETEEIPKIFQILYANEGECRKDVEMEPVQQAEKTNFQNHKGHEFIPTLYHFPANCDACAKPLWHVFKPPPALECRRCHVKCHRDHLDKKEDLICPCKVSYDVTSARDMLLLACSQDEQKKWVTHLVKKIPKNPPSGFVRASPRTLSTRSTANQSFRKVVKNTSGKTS

For `NC(=O)Nc1cc(-c2ccnc(NC(=O)C3CCC3)c2)sc1C(N)=O` [Compound 50, 5-(2-(Cyclobutanecarboxamido)pyridin-4-yl)-3-ureidothiophene-2-carboxamide], in series [1], the “effect on cell viability in HT-22 cells (in words)” value (from here on “effect on cell viability”) is listed as “no significant decrease in cell viability”. For the same compound, the inhibition at 1 µM in series [2] (1 μM (footnote), mean ± SD, read-out: % inh. ROCK-1, tested at inhibitor screening concentration of 1 μM) was < 10%.

For `CC(C)C(=O)Nc1cc(-c2cc3c(s2)C(=O)NC(C)(C)N3)ccn1` [Compound 39, N-(4-(2,2-Dimethyl-4-oxo-1,2,3,4-tetrahydrothieno [3,2-d]pyrimidin-6-yl)pyridin-2-yl)isobutyramide], in series [1], the “effect on cell viability” value was “decreased cells’ viability”. In series [3], the viability at 24 h, 1 µM turned out to be 84%; the viability at 24 h, 10 µM stood at 55%; the viability at 24 h, 50 µM came out at 35%; the viability at 24 h, 100 µM came to 29%. Besides, in series [3], the IC50 at 24 h was 8.4 ± 5.3 µM and the viability at 24 h, 0.1 µM amounted to 91%. Besides, the inhibition at 10 µM in series [2] (mean ± SD) was 32%.

For `CC(C)C(=O)Nc1cc(-c2cc(NC(N)=O)c(C(N)=O)s2)ccn1` [Compound 48, 5-(2-Isobutyramidopyridin-4-yl)-3-ureidothiophene-2-carboxamide], the “effect on cell viability” value in series [1] is listed as “decreased cells’ viability”. Moreover, in series [3], the viability at 24 h, 1 µM was 89%; the viability at 24 h, 10 µM is 77%; the viability at 24 h, 50 µM is 52%; the IC50 at 24 h was found to be 36.6 ± 4.3 µM. In addition, the viability at 24 h, 0.1 µM in series [3] is 92%. Further, in series [2] (mean ± SD), the inhibition at 10 µM was < 10%.

With `NC(=O)Nc1cc(-c2ccnc(NC(=O)C3CC3)c2)sc1C(N)=O` [Compound 49, 5-(2-(Cyclopropanecarboxamido)pyridin-4-yl)-3-ureidothiophene-2-carboxamide], in series [1], the “effect on cell viability” value is reported as “no significant decrease in cell viability” and the “effect on viability of HT-22 cells at concentrations up to 10 µM (in words)” value is “did not decrease the viability of the cells”. In addition, in series [3], the viability at 24 h, 1 µM stood at 102%; the viability at 24 h, 10 µM was found to be 101%; the viability at 24 h, 50 µM is 88%; the viability at 24 h, 100 µM was 76%. Also, in series [3], the IC50 at 24 h is > 100 µM and the viability at 24 h, 0.1 µM worked out at 95%.

Take `O=C1NC2(CCCC2)Nc2cc(-c3ccnc(NC(=O)C4CC4)c3)sc21` [Compound 60, N-(4-(4’-Oxo-3’,4’-dihydro-1’H-spiro[cyclopentane-1,2’-thieno [3,2-d]pyrimidin]-6’-yl)pyridin-2-yl)cyclopropanecarboxamide]: the “effect on cell viability” value in series [1] is reported as “decreased cells’ viability”. Also, in series [3], the viability at 24 h, 1 µM is 105%; the viability at 24 h, 10 µM is 62%; the viability at 24 h, 50 µM stood at 36%; the viability at 24 h, 100 µM is 31%. Further, in series [3], the IC50 at 24 h was determined as 9.7 ± 5.8 µM and the viability at 24 h, 0.1 µM was found to be 101%. This compound had an IC50 in series [2] of 1.36 ± 0.079 µM.

Turning to `NC(=O)Nc1cc(-c2cccc(NC(=O)C3CC3)c2)sc1C(N)=O` [Compound 58, 5-(3-(Cyclopropanecarboxamido)phenyl)-3-ureidothiophene-2-carboxamide], in series [1], the “effect on cell viability” value is recorded as “decreased cells’ viability” and the “effect on viability of HT-22 cells at concentrations up to 10 µM (in words)” value is on record as “did not decrease the viability of the cells”. In series [3], the viability at 24 h, 1 µM was 92%; the viability at 24 h, 10 µM worked out at 89%; the viability at 24 h, 50 µM is 54%; the viability at 24 h, 100 µM is 45%. In addition, in series [3], the IC50 at 24 h worked out at 67.1 ± 14.5 µM and the viability at 24 h, 0.1 µM amounted to 94%.

Turning to `CC1(C)NC(=O)c2sc(-c3ccnc(NC(=O)C4CC4)c3)cc2N1` [Compound 40, N-(4-(2,2-Dimethyl-4-oxo-1,2,3,4-tetrahydrothieno [3,2-d]pyrimidin-6-yl)pyridin-2-yl)-cyclopropanecarboxamide], the “effect on cell viability” value in series [1] is recorded as “decreased cells’ viability”. For the same compound, in series [3], the viability at 24 h, 1 µM is 105%; the viability at 24 h, 10 µM came out at 71%; the viability at 24 h, 50 µM was found to be 28%; the viability at 24 h, 100 µM is 21%. In addition, in series [3], the concentration for half-maximal inhibition (IC50) at 24 h is 19.9 ± 4.1 µM and the viability at 24 h, 0.1 µM came to 100%. 1.76 ± 0.109 µM corresponded to half-maximal inhibition in series [2] (IC50).

For `COc1nc(-c2ccnc(NC(=O)C3CC3)c2)sc1C(N)=O` [II, reference compound], the “effect on cell viability” value in series [1] is recorded as “decreased cells’ viability”. In series [3], the viability at 24 h, 1 µM stood at 104%; the viability at 24 h, 10 µM was 87%; the viability at 24 h, 50 µM was determined as 77%; the viability at 24 h, 100 µM turned out to be 64%. Also, in series [3], the IC50 at 24 h was > 100 µM and the viability at 24 h, 0.1 µM was determined as 107%.

Consider `CC1(C)NC(=O)c2sc(-c3ccnc(NC(=O)C4CCC4)c3)cc2N1` [Compound 41, N-(4-(2,2-Dimethyl-4-oxo-1,2,3,4-tetrahydrothieno [3,2-d]pyrimidin-6-yl)pyridin-2-yl)-cyclobutanecarboxamide], for which the “effect on cell viability” value in series [1] is given as “decreased cells’ viability”. In series [2] (mean ± SD), the inhibition at 10 µM came to 48%.
